PMC5896380, “Selective imaging of cathepsin L in breast cancer by fluorescent activity-based probes” (Chemical Science, 2018)
Non-standard residues stand in square brackets, D forms with d. *: point of attachment. Phe(3,4-Cl2) = N[C@@H](Cc1ccc(Cl)c(Cl)c1)C(=O)O; Phe(F5) = N[C@@H](Cc1c(F)c(F)c(F)c(F)c1F)C(=O)O; Phe(3,4-F2) = N[C@@H](Cc1ccc(F)c(F)c1)C(=O)O; ACC = NC(=O)Cc1cc(=O)oc2cc(N*)ccc12; hArg = N=C(N)NCCCC[C@H](N)C(=O)O; ClZ = O=C(OCc1ccccc1Cl)*; Orn = NCCC[C@H](N)C(=O)O; Mob = COc1ccc(C*)cc1; OBn = c1ccc(CO*)cc1

Assays:
Format in all cases: biochemical
cathepsin S [1] = target: T1, cathepsin S (Homo sapiens, UniProt P25774); assay: Substrate selectivity screening, rate of hydrolysis, cathepsin S; details: Table S4; substrate 100µM, cathepsin 5nM; pH 5.5, 37 °C; average of at least three screenings
T1 construct: made in house
Description: (§1) All kinetic experiments were performed using fMax (Molecular Devices) and CLARIOStar (BMG LABTECH) spectrofluorimeters operating in kinetic mode using 96-well plates. ACC-labeled substrates were screened using 355 nm and 460 nm wavelengths (excitation and emission, respectively). […] The buffer was prepared at room temperature and the enzyme kinetic studies were performed at 37 °C.
(§2) All potentially selective cathepsin L substrates were tested for their selectivity against a panel of five different cathepsins, containing cathepsins L, V, S, K and […], at concentrations of 2 μM and 100 μM. To obtain reliable results the concentration of each cathepsin was 5 nM. Substrate hydrolysis was carried out for 10 min (for cathepsin L) and for up to 60 min (for other cathepsins). Hydrolysis rates (RFU s^–1) are presented as average values from at least three screenings.

cathepsin B [2] = target: T2, cathepsin B (Homo sapiens, UniProt P07858); assay: Substrate selectivity screening, rate of hydrolysis, cathepsin B; details: Table S4; substrate 100µM, cathepsin 5nM; pH 5.5, 37 °C; average of at least three screenings
T2 construct: made in house
Description: as §1, §2

cathepsin K [3] = target: T3, cathepsin K (Homo sapiens, UniProt P43235); assay: Substrate selectivity screening, rate of hydrolysis, cathepsin K; details: Table S4; substrate 100µM, cathepsin 5nM; pH 5.5, 37 °C; average of at least three screenings
T3 construct: made in house
T3 sequence (P43235 115-329): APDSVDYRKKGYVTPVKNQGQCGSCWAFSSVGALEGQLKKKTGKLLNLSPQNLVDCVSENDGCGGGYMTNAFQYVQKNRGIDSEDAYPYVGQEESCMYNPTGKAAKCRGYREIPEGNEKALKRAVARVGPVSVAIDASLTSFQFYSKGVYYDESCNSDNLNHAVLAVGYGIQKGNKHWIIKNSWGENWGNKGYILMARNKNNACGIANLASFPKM
Description: as §1, §2

cathepsin L [4] = target: T4, cathepsin L (Homo sapiens, UniProt P07711); assay: Substrate selectivity screening, rate of hydrolysis, cathepsin L; details: Table S4; substrate 100µM, cathepsin 5nM; pH 5.5, 37 °C; average of at least three screenings
T4 construct: made in house
Description: as §1, §2

cathepsin V [5] = target: T5, cathepsin V (Homo sapiens, UniProt O60911); assay: Substrate selectivity screening, rate of hydrolysis, cathepsin V; details: Table S4; substrate 100µM, cathepsin 5nM; pH 5.5, 37 °C; average of at least three screenings
T5 construct: made in house
Description: as §1, §2

cathepsin S [6] = target: T1, cathepsin S; assay: Kinetic parameters of ACC substrates with cathepsin S; details: Fig. 5B; pH 5.5, 37 °C; cathepsin S 5–20 nM; triplicate, SD below 15%
Description: as §1
(§3) Classic substrate velocity plots were analyzed according to Michaelis–Menten kinetics and a detailed protocol for the determination of kinetic parameters for ACC-tagged substrates is found elsewhere.[56] […] Experiments were repeated at least three times and results are presented as an average. The SDs were below 15%.

cathepsin L [7] = target: T4, cathepsin L; assay: Kinetic parameters of ACC substrates with cathepsin L; details: Fig. 5B; pH 5.5, 37 °C; cathepsin L 0.1–0.5 nM; triplicate, SD below 15%
Description: as §1, §3

cathepsin K [8] = target: T3, cathepsin K; assay: Kinetic parameters of ACC substrates with cathepsin K; details: Fig. 5B; pH 5.5, 37 °C; cathepsin K 5–20 nM; triplicate, SD below 15%
Description: as §1, §3

cathepsin B [9] = target: T2, cathepsin B; assay: Kinetic parameters of ACC substrates with cathepsin B; details: Fig. 5B; pH 5.5, 37 °C; cathepsin B 4–15 nM; triplicate, SD below 15%
Description: as §1, §3

cathepsin V [10] = target: T5, cathepsin V; assay: Kinetic parameters of ACC substrates with cathepsin V; details: Fig. 5B; pH 5.5, 37 °C; cathepsin V 10–20 nM; triplicate, SD below 15%
Description: as §1, §3

T1 sequence (P25774 115-331): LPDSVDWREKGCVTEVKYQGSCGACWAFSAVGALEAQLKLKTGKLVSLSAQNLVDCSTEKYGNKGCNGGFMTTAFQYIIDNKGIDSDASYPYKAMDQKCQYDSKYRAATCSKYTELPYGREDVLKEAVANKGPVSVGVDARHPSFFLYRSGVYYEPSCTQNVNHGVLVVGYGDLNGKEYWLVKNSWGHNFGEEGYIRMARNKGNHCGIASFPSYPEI
T5 sequence (O60911 114-334): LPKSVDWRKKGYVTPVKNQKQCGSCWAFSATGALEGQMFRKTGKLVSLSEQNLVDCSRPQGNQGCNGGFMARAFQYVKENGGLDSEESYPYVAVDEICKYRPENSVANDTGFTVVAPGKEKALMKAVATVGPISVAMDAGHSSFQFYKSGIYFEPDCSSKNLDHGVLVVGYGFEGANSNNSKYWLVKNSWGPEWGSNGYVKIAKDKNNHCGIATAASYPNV
T4 sequence (P07711 114-333): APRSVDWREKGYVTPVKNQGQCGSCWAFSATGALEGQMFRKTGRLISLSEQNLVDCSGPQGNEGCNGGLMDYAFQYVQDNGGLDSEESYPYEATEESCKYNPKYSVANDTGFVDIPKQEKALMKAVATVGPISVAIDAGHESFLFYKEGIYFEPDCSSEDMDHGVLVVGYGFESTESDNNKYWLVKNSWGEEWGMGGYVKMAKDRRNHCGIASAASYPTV

Substance	Relative substrate activity (rate of hydrolysis), cathepsin S (cathepsin S [1])	Relative substrate activity (rate of hydrolysis), cathepsin B (cathepsin B [2])	Relative substrate activity (rate of hydrolysis), cathepsin K (cathepsin K [3])	Relative substrate activity (rate of hydrolysis), cathepsin L (cathepsin L [4])	Relative substrate activity (rate of hydrolysis), cathepsin V (cathepsin V [5])	kcat/KM Cath-S (cathepsin S [6])	kcat/KM Cath-L (cathepsin L [7])	kcat/KM Cath-K (cathepsin K [8])	kcat/KM Cath-B (cathepsin B [9])	kcat/KM Cath-V (cathepsin V [10])
Ac-A[Orn][Phe(3,4-Cl2)]R-{ACC} (SMILES CC(=O)N[C@@H](C)C(=O)N[C@@H](CCCN)C(=O)N[C@@H](Cc1ccc(Cl)c(Cl)c1)C(=O)N[C@@H](CCCNC(=N)N)C(=O)Nc1ccc2c(CC(N)=O)cc(=O)oc2c1)	3.4 RFU/s	189 RFU/s	4.6 RFU/s	844 RFU/s	346 RFU/s					
Ac-A[dK]K(Ac)R-{ACC} (SMILES CC(=O)NCCCC[C@H](NC(=O)[C@@H](CCCCN)NC(=O)[C@H](C)NC(C)=O)C(=O)N[C@@H](CCCNC(=N)N)C(=O)Nc1ccc2c(CC(N)=O)cc(=O)oc2c1)	0.0 RFU/s	16.9 RFU/s	1.2 RFU/s	25.3 RFU/s	0.0 RFU/s					
Ac-H[dL][Phe(3,4-Cl2)]R-{ACC} (SMILES CC(=O)N[C@@H](Cc1c[nH]cn1)C(=O)N[C@H](CC(C)C)C(=O)N[C@@H](Cc1ccc(Cl)c(Cl)c1)C(=O)N[C@@H](CCCNC(=N)N)C(=O)Nc1ccc2c(CC(N)=O)cc(=O)oc2c1)	4.4 RFU/s	65.1 RFU/s	1.5 RFU/s	901 RFU/s	306 RFU/s					
Ac-H[dL][Phe(F5)][Orn]-{ACC} (SMILES CC(=O)N[C@@H](Cc1c[nH]cn1)C(=O)N[C@H](CC(C)C)C(=O)N[C@@H](Cc1c(F)c(F)c(F)c(F)c1F)C(=O)N[C@@H](CCCN)C(=O)Nc1ccc2c(CC(N)=O)cc(=O)oc2c1)	0.0 RFU/s	0.0 RFU/s	0.3 RFU/s	153 RFU/s	0.0 RFU/s					
Ac-H[dR][Phe(3,4-F2)]L-{ACC} (SMILES CC(=O)N[C@@H](Cc1c[nH]cn1)C(=O)N[C@H](CCCNC(=N)N)C(=O)N[C@@H](Cc1ccc(F)c(F)c1)C(=O)N[C@@H](CC(C)C)C(=O)Nc1ccc2c(CC(N)=O)cc(=O)oc2c1)	12.7 RFU/s	22.3 RFU/s	0.0 RFU/s	474 RFU/s	30.5 RFU/s					
Ac-H[dV][Phe(F5)]C(Mob)-{ACC} (SMILES COc1ccc(CSC[C@H](NC(=O)[C@H](Cc2c(F)c(F)c(F)c(F)c2F)NC(=O)[C@H](NC(=O)[C@H](Cc2c[nH]cn2)NC(C)=O)C(C)C)C(=O)Nc2ccc3c(CC(N)=O)cc(=O)oc3c2)cc1)						< 10 M⁻¹ s⁻¹	2,135,000 M^-1s^-1	< 10 M⁻¹ s⁻¹	3,800 M^-1s^-1	2,070 M^-1s^-1
Ac-H[dV][Phe(F5)]E(OBn)-{ACC} (SMILES CC(=O)N[C@@H](Cc1c[nH]cn1)C(=O)N[C@@H](C(=O)N[C@@H](Cc1c(F)c(F)c(F)c(F)c1F)C(=O)N[C@@H](CCC(=O)OCc1ccccc1)C(=O)Nc1ccc2c(CC(N)=O)cc(=O)oc2c1)C(C)C)						1,110 M^-1s^-1	599,800 M^-1s^-1	626 M⁻¹ s⁻¹	941 M⁻¹ s⁻¹	710 M⁻¹ s⁻¹
Ac-H[dV][Phe(F5)]K(ClZ)-{ACC} (SMILES CC(=O)N[C@@H](Cc1c[nH]cn1)C(=O)N[C@@H](C(=O)N[C@@H](Cc1c(F)c(F)c(F)c(F)c1F)C(=O)N[C@@H](CCCCNC(=O)OCc1ccccc1Cl)C(=O)Nc1ccc2c(CC(N)=O)cc(=O)oc2c1)C(C)C)						< 10 M⁻¹ s⁻¹	686,700 M^-1s^-1	361 M⁻¹ s⁻¹	1,320 M^-1s^-1	329 M⁻¹ s⁻¹
Ac-H[dV][Phe(F5)]L-{ACC} (SMILES CC(=O)N[C@@H](Cc1c[nH]cn1)C(=O)N[C@@H](C(=O)N[C@@H](Cc1c(F)c(F)c(F)c(F)c1F)C(=O)N[C@@H](CC(C)C)C(=O)Nc1ccc2c(CC(N)=O)cc(=O)oc2c1)C(C)C)						912 M⁻¹ s⁻¹	135,600 M^-1s^-1	646 M⁻¹ s⁻¹	684 M⁻¹ s⁻¹	325 M⁻¹ s⁻¹
Ac-H[dV][Phe(F5)][hArg]-{ACC} (SMILES CC(=O)N[C@@H](Cc1c[nH]cn1)C(=O)N[C@@H](C(=O)N[C@@H](Cc1c(F)c(F)c(F)c(F)c1F)C(=O)N[C@@H](CCCCNC(=N)N)C(=O)Nc1ccc2c(CC(N)=O)cc(=O)oc2c1)C(C)C)						< 10 M⁻¹ s⁻¹	317,900 M^-1s^-1	< 10 M⁻¹ s⁻¹	187 M⁻¹ s⁻¹	175 M⁻¹ s⁻¹
Ac-His-DVal-Phe(F5)-Lys-ACC						< 10 M⁻¹ s⁻¹	231,000 M^-1s^-1	< 10 M⁻¹ s⁻¹	< 10 M⁻¹ s⁻¹	< 10 M⁻¹ s⁻¹
Ac-His-DVal-Phe(F5)-Nle(OBzl)-ACC						508 M⁻¹ s⁻¹	2,290,000 M^-1s^-1	906 M⁻¹ s⁻¹	2,500 M^-1s^-1	3,820 M^-1s^-1
Ac-Pip-DLeu-Phe(3,4-F2)-Arg-ACC	7.8 RFU/s	9.4 RFU/s	1.2 RFU/s	699 RFU/s	103 RFU/s					
Ac-R[dV][Phe(F5)]R-{ACC} (SMILES CC(=O)N[C@@H](CCCNC(=N)N)C(=O)N[C@@H](C(=O)N[C@@H](Cc1c(F)c(F)c(F)c(F)c1F)C(=O)N[C@@H](CCCNC(=N)N)C(=O)Nc1ccc2c(CC(N)=O)cc(=O)oc2c1)C(C)C)						< 10 M⁻¹ s⁻¹	387,300 M^-1s^-1	< 10 M⁻¹ s⁻¹	101 M⁻¹ s⁻¹	333 M⁻¹ s⁻¹
Ac-[hArg][dV][Phe(F5)]R-{ACC} (SMILES CC(=O)N[C@@H](CCCCNC(=N)N)C(=O)N[C@@H](C(=O)N[C@@H](Cc1c(F)c(F)c(F)c(F)c1F)C(=O)N[C@@H](CCCNC(=N)N)C(=O)Nc1ccc2c(CC(N)=O)cc(=O)oc2c1)C(C)C)						< 10 M⁻¹ s⁻¹	454,800 M^-1s^-1	96 M⁻¹ s⁻¹	242 M⁻¹ s⁻¹	647 M⁻¹ s⁻¹
